Source: publication PMC7157764, “Avoiding Drug Resistance by Substrate Envelope-Guided Design: Toward Potent and Robust HCV NS3/4A Protease Inhibitors” (mBio, 2020)

Tests used:
[1] = target: T1, HCV NS3/4A protease GT1a WT (Hepatitis C virus genotype 1a, UniProt P27958, C1185S); format: biochemical; conditions: for Ki: 2 nM protease preincubated 1 h at room temperature with inhibitor, pH 7.5, 200 nM fluorogenic substrate, Morrison equation global fit, error from global fit of at least three replicates; for Fold increase in potency against WT compared with the parent compound: relative to parent compound, WT protease
T1 construct: His tag (cleaved yes); made in house; host or cells: Escherichia coli BL21(DE3), pET28a

[2] = target: T2, HCV NS3/4A protease D168A variant (Hepatitis C virus genotype 1a, UniProt P27958, C1185S/D1194A); format: biochemical; conditions: for Ki: 2 nM protease preincubated 1 h at room temperature with inhibitor, pH 7.5, 200 nM fluorogenic substrate, Morrison equation global fit, error from global fit of at least three replicates
T2 construct: His tag (cleaved yes); made in house; host or cells: Escherichia coli BL21(DE3), pET28a

[3] = system: HCV NS3/4A protease D168A variant; format: biochemical, Hepatitis C virus genotype 1a

T1 sequence (P27958 1027-1208 C1185S): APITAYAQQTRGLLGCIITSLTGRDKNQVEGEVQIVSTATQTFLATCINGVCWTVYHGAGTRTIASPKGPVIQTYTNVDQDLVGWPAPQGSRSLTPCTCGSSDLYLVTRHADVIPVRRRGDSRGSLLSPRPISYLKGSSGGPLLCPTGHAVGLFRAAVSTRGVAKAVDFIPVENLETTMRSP
T2 sequence (P27958 1027-1208 C1185S/D1194A): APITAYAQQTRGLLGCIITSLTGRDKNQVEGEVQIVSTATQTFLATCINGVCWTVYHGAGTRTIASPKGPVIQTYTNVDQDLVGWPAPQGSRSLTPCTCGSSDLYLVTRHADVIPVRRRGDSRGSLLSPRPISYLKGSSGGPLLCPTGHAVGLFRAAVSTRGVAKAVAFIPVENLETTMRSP

Row | SMILES | Ki [1] [nM] | Ki [2] [nM] | Fold change of Ki, D168A relative to WT [3] [fold] | Fold increase in potency against D168A compared with the parent compound [2] [fold] | Fold increase in potency against WT compared with the parent compound [1] | Fold increase in potency against D168A compared with grazoprevir [2] [fold]
1 | CCc1nc2ccc(OC)cc2nc1O[C@@H]1C[C@H]2C(=O)N[C@]3(C(=O)NS(=O)(=O)C4CC4)C[C@H]3/C=C\CCCCC[C@H](NC(=O)OC(C)(C)C)C(=O)N2C1 [5172-mcP1P3, reference compound] | 3.29 ± 0.52 | 82.4 ± 4.4 | – | – | – | –
2 | COc1ccc2nc(C)c(O[C@@H]3C[C@H]4C(=O)N[C@]5(C(=O)NS(=O)(=O)C6(C)CC6)C[C@H]5/C=C\CCCCC[C@H](NC(=O)OC5(C)CC5)C(=O)N4C3)nc2c1 [P4-1] | 4.44 ± 0.3 | 27.9 ± 4.1 | 6 | ~2 | – | –
3 | COc1ccc2nc(C)c(O[C@@H]3C[C@H]4C(=O)N[C@]5(C(=O)NS(=O)(=O)C6(C)CC6)C[C@H]5/C=C\CCCCC[C@H](NC(=O)OC5(C)CCC5)C(=O)N4C3)nc2c1 [P4-2] | 1.4 ± 0.13 | 46.4 ± 3.4 | 33 | – | 4 fold | –
4 | CCC1(OC(=O)N[C@H]2CCCCC/C=C\[C@@H]3C[C@@]3(C(=O)NS(=O)(=O)C3(C)CC3)NC(=O)[C@@H]3C[C@@H](Oc4nc5cc(OC)ccc5nc4C)CN3C2=O)CCCC1 [P4-5] | 1.29 ± 0.05 | 21.7 ± 2.3 | 17 | – | – | –
5 | COc1ccc2nc(C)c(O[C@@H]3C[C@H]4C(=O)N[C@]5(C(=O)NS(=O)(=O)C6(C)CC6)C[C@H]5/C=C\CCCCC[C@H](NC(=O)OC5C[C@@H]6C[C@@H]6C5)C(=O)N4C3)nc2c1 (stereo partly shown) [P4-7] | 0.54 ± 0.2 | 2.3 ± 0.7 | 4 | ~20 | approximately 6.5 fold | ~20
6 | COC(=O)N[C@H](C(=O)N[C@H]1CCCCC/C=C\[C@@H]2C[C@@]2(C(=O)NS(=O)(=O)C2(C)CC2)NC(=O)[C@@H]2C[C@@H](Oc3nc4cc(OC)ccc4nc3C)CN2C1=O)C(C)C [P4P5-1B] | 13 ± 0.8 | 102 ± 6.8 | 8 | – | – | –
7 | COC(=O)NC1(C(=O)N[C@H]2CCCCC/C=C\[C@@H]3C[C@@]3(C(=O)NS(=O)(=O)C3(C)CC3)NC(=O)[C@@H]3C[C@@H](Oc4nc5cc(OC)ccc5nc4C)CN3C2=O)CCCC1 [P4P5-5] | 31 ± 2.74 | 931 ± 70 | 30 | – | – | –
8 | COc1ccc2nc(C)c(O[C@@H]3C[C@H]4C(=O)N[C@]5(C(=O)NS(=O)(=O)C6(C)CC6)C[C@H]5/C=C\CCCCC[C@H](NC(=O)OC5CCCCC5)C(=O)N4C3)nc2c1 [P4-6] | 0.94 ± 0.25 | 12.7 ± 1.2 | 14 | – | – | –
